According to patent US20070059632A1, “Method of manufacturing a semiconductor device” (priority 2003, published 2007):

Experiments:
Format in all cases: physicochemical
Alkali developability = assay: Alkali developability; design: key: A: the resist film dissolved completely and disappeared; C: the resist film remained not dissolved even in a slight amount; details: tested on the corresponding polyphenol compound A before introducing the acid-dissociating group; film immersed in 2.38% aqueous TMAH for 10 s
Procedure: (5) Alkali Developability
A polyphenol compound A corresponding to each compound before introducing the acid-dissociating functional group was examined for its developability with an alkali developing solution.
A 10% by weight solution of each polyphenol compound A in PGMEA was spin-coated using a spin coater, to form a resist film of about 0.2 μm thick. After heating on a hot plate for 3 min at 110° C., the resist film was immersed in a 2.38% aqueous solution of TMAH for 10 s. The results were rated as “A” when the resist film dissolved completely and disappeared, and “C” when the resist film remained not dissolved even in a slight amount.

[1] = Inhibition of dissolution in alkali developing solution; design: key: A: no change was visually noticed in the state of film; C: the surface was roughened or a part of the film was lost because of dissolution; details: resist film immersed in 2.38% aqueous solution of TMAH for 3 min
Procedure: (3) Inhibition of Dissolution in Alkali Developing Solution
The resist film formed in the evaluation 2 was immersed in a developing solution (2.38% aqueous solution of TMAH) for 3 min. The results were rated as “A” when no change was visually noticed in the state of film, and “C” when the surface was roughened or a part of the film was lost because of dissolution.

[2] = Solubility of compound in safety solvent; details: safety solvent (PGMEA or EL) at 23° C.
Procedure: (1) Solubility of Compound in Safety Solvent
Each compound was tested for its solubility in safety solvent (PGMEA or EL) at 23° C. The solubility was rated as “A” when dissolved in an amount of 5% by weight or more, “B” when dissolved in an amount of 0.1% by weight or more but less than 5% by weight, and “C” when not dissolved in an amount of 0.1% by weight or more.

| Compound | (5) Alkali developability (Alkali developability) | (3) Inhibition of dissolution in developing solution [1] | (1) Solubility in safety solvent [2] |
| --- | --- | --- | --- |
| Cc1cc(C(C)(c2ccc(OC(=O)OC(C)(C)C)c(C)c2)c2ccc3ccccc3c2)ccc1OC(=O)OC(C)(C)C [Compound 5-1] | A | A | A (dissolved in an amount of 5% by weight or more) |
| Cc1cc(C(C)(c2ccc(OC(=O)OC(C)(C)C)c(C)c2)c2ccc3ccccc3c2)ccc1O (stereo not drawn) [Compound 5-2] | A | A | A (dissolved in an amount of 5% by weight or more) |
| CC(C)(C)OC(=O)Cc1cc(C(C)(c2ccc(OC(=O)OC(C)(C)C)c(OC(=O)OC(C)(C)C)c2)c2ccc3ccccc3c2)ccc1OC(=O)OC(C)(C)C (stereo not drawn) [Compound 5-3] | A | A | A (dissolved in an amount of 5% by weight or more) |
| CCOC(C)Oc1ccc(C(C)(c2ccc(O)c(C)c2)c2ccc3ccccc3c2)cc1C (stereo not drawn) [Compound 5-4] | A | A | A (dissolved in an amount of 5% by weight or more) |
| Cc1cc(C(C)(c2ccc(OC(C)OC3CCCCC3)c(C)c2)c2ccc3ccccc3c2)ccc1O (stereo not drawn) [Compound 5-5] | A | A | A (dissolved in an amount of 5% by weight or more) |
| Cc1cc(C(C)(c2ccc(OC3CCCCO3)c(C)c2)c2ccc3ccccc3c2)ccc1O (stereo not drawn) [Compound 5-6] | A | A | A (dissolved in an amount of 5% by weight or more) |
| CCOC(C)Oc1ccc(C(C)(c2ccc(O)c(C3CCCCC3)c2)c2ccc3ccccc3c2)cc1C1CCCCC1 (stereo not drawn) [Compound 5-7] | A | A | A (dissolved in an amount of 5% by weight or more) |
| CC(C)(C)OC(=O)Oc1ccc(C(C)(c2ccc(O)cc2)c2ccc3ccccc3c2)cc1 (stereo not drawn) [Compound 5-8] | A | A | A (dissolved in an amount of 5% by weight or more) |
| CC(C)(C)OC(=O)Oc1ccc(C(c2ccc(O)cc2)c2cccc3ccccc23)cc1 (stereo not drawn) [Compound 5-9] | A | A | A (dissolved in an amount of 5% by weight or more) |
| Oc1ccc(C(c2ccc(OC3CCCCO3)cc2)c2ccc(-c3ccccc3)cc2)cc1 (stereo not drawn) [Compound 6-1] | A | A | A (dissolved in an amount of 5% by weight or more) |
| CC(C)(C)OC(=O)Oc1ccc(C2(c3ccc(OC(=O)OC(C)(C)C)c(OC(=O)OC(C)(C)C)c3)c3ccccc3-c3ccccc32)cc1OC(=O)OC(C)(C)C [Compound 7-1] |  | A | B (dissolved in an amount of 0.1% by weight or more but less than 5% by weight) |
| CC(C)(C)OC(=O)Oc1cc(C2(c3ccc(OC(=O)OC(C)(C)C)c(OC(=O)OC(C)(C)C)c3)c3ccccc3-c3ccccc32)ccc1O [Compound 7-2] | A | A | A (dissolved in an amount of 5% by weight or more) |
| CC(C)(C)OC(=O)Cc1cc(C2(c3cc(OC(=O)OC(C)(C)C)c(OC(=O)OC(C)(C)C)c(OC(=O)OC(C)(C)C)c3)c3ccccc3-c3ccccc32)cc(OC(=O)OC(C)(C)C)c1OC(=O)OC(C)(C)C [Compound 7-3] | A | A | A (dissolved in an amount of 5% by weight or more) |
| Oc1ccc(C2(c3ccc(OC4CCCCO4)cc3)c3ccccc3-c3ccccc32)cc1 (stereo not drawn) [Compound 7-4] | A | A | A (dissolved in an amount of 5% by weight or more) |
| O=C1c2ccccc2C(c2ccc(O)cc2)(c2ccc(OC3CCCCO3)cc2)c2ccccc21 (stereo not drawn) [Compound 7-5] | A | A | A (dissolved in an amount of 5% by weight or more) |
| Oc1ccc(C2(c3ccc(OC4CCCCO4)cc3)Cc3cccc4cccc2c34)cc1 (stereo not drawn) [Compound 8-1] | A | A | A (dissolved in an amount of 5% by weight or more) |
| O=C1c2cccc3cccc(c23)C1(c1ccc(O)cc1)c1ccc(OC2CCCCO2)cc1 (stereo not drawn) [Compound 8-2] | A | A | A (dissolved in an amount of 5% by weight or more) |
| CCOC(C)Oc1ccc(C2(c3ccc(O)c(C4CCCCC4)c3)Cc3cccc4cccc2c34)cc1C1CCCCC1 (stereo not drawn) [Compound 8-3] | A | A | A (dissolved in an amount of 5% by weight or more) |
| CC(C)(C)OC(=O)Oc1ccc(C2(c3ccc(OC(=O)OC(C)(C)C)cc3)C(=O)c3cccc4cccc2c34)cc1 [Compound 8-4] | A | A | A (dissolved in an amount of 5% by weight or more) |
| CCOC(C)Oc1ccc(C2(c3ccc(O)c(-c4ccccc4)c3)Cc3cccc4cccc2c34)cc1-c1ccccc1 (stereo not drawn) [Compound 8-5] | A | A | A (dissolved in an amount of 5% by weight or more) |
| CC1(c2ccc3ccccc3c2)c2ccc(O)cc2Oc2cc(OC3CCCCC3)ccc21 (stereo not drawn) [Compound 9-1] | A | A | A (dissolved in an amount of 5% by weight or more) |
| CCCCOC(=O)Oc1ccc2c(c1)Oc1cc(OC(=O)OCCCC)ccc1C2c1ccc(-c2ccccc2)cc1 [Compound 10-1] | A | A | A (dissolved in an amount of 5% by weight or more) |
| Oc1ccc2c(c1)Oc1cc(OC3CCCCO3)ccc1C2c1ccc(-c2ccccc2)cc1 (stereo not drawn) [Compound 10-2] | A | A | A (dissolved in an amount of 5% by weight or more) |
| CC(C)(C)OC(=O)Oc1ccc2c(c1)Oc1cc(O)ccc1C21c2ccccc2-c2ccccc21 [Compound 11-1] | A | A | A (dissolved in an amount of 5% by weight or more) |
| CC(C)(C)OC(=O)Oc1ccc(C(C)(C)c2ccc(OC(=O)OC(C)(C)C)cc2)cc1 [Compound 14-1, reference compound] | A |  | C (not dissolved in an amount of 0.1% by weight or more) |
| CC(C)(C)OC(=O)Oc1ccc(C2(c3ccc(OC(=O)OC(C)(C)C)cc3)CCCCC2)cc1 [Compound 14-2, reference compound] | A |  | C (not dissolved in an amount of 0.1% by weight or more) |
